A melting point compilation (Tetko et al.; mined from patent text by program, amines drawn as free bases though some values may be those of a salt)

SMILES | melting point
CN1CCN(c2ccc(I)nn2)CC1 | 149 °C
CC(=O)OC1OC(C)C(OCc2ccccc2)C(OCc2ccccc2)C1OCc1ccccc1 (configuration not stated) | 86 to 87.5 °C
CCCCCCCCCCC(=O)N[C@H]1CCCNC(=O)C1 | 91 to 92 °C
CC(C)(C)OC(=O)CN1CC(c2ccc3ccccc3c2)SCC(N2C(=O)c3ccccc3C2=O)C1=O (configuration not stated) | 208 to 210 °C
COc1nnc2n1-c1sc(CCC(=O)N3CCOCC3)cc1C(c1ccccc1Cl)=NC2 | 163 to 164 °C
NC(=O)Cc1ccc2c(c1)CCc1cccnc1S2 | 165 to 166 °C
COC(=O)c1ccccc1-c1ccc(CNc2nc(Cl)nc3ccccc23)cc1 | 75 to 90 °C
COc1cc(NC(=O)c2cc(Br)ccc2O)cc(OC)c1 | 207 to 209 °C
COc1ccc(-c2nc(C)ccc2OC2SCC(O)C(O)C2O)cc1 (configuration not stated) | 86 to 90 °C
O=C(Nc1ccc[nH]c1=O)c1ccccc1F | 223 °C
C=C1C(=N)NC(=O)N1Cc1ccccc1 | 225 °C
CN(C)CCNC(=S)SC(C)(C)[C@H](NC(=O)c1ccc(Cl)cc1)C(=O)O | 142 to 143 °C
OCCCCCCCCCCCN1CCCCC1 | 62 to 65 °C
Cc1ccc2c(c1)N=C(N1CCN(C)CC1)c1cc(C)sc1O2 | 146 to 148 °C
O=C(NN1CCN(C(=O)C=Cc2ccccc2)CC1)c1ccc(F)cc1 | 235 to 240 °C
O=c1[nH]c2ccccc2cc1CN1CC=C(/C=C/c2ccccc2)CC1 | 258 to 260 °C
O=C(Nc1ccccc1)ONC1=Nc2ccc(Br)cc2C(c2ccccn2)=NC1 | 190 to 192 °C
COc1ccc(Br)cc1-c1ccc2nonc2c1 | 135 to 137 °C
CC[C@@]12CC(=O)[C@](O)(c3ccccc3)C[C@H]1CCc1cc(O)ccc12 | 97 to 98 °C
O=C(O)c1c(-c2ccccc2)c(-c2ccccc2)nn1-c1ccccc1 | 190 °C

SMILES | melting point
Nc1ccc2c(c1)S(=O)(=O)c1ccccc1-2 | 261 to 264 °C
CCC1(C)CC(NC(=O)c2ccccc2)C(C)C(C)(CC)N1Cc1ccccc1 (configuration not stated) | 173 to 176 °C
O=C1NCCSC1Cc1ccc(OCc2ccccc2)cc1 (configuration not stated) | 126 to 128 °C
O=C1NC(=O)C(N2C(=O)c3ccccc3C2=O)CC1c1ccccc1 (configuration not stated) | 228 to 231 °C
NC(=S)Nc1c(Cl)cccc1Cl | 158 to 160 °C
Cc1csc(Cl)c1NC(=S)Nc1cscc1N | 132 to 135 °C
Cc1cccc(Sc2c(O)cc(-c3ccccc3)oc2=O)c1 | 197 to 198 °C
CCCSc1sc(C(=O)O)c2c1-c1c(cnn1C)CC2 | 216 to 217 °C
CC(Nc1cc(Br)ccc1OCc1ccccc1)c1ccc(C(=O)O)cc1 (configuration not stated) | 186 to 187 °C
CCC(=O)N1C(=O)OC(C)(C)[C@H]1c1ccccc1 | 60 °C
Nc1nc2ccccc2c2c1nc1n2C(C2CCOCC2)COC1 (configuration not stated) | 240 to 243 °C
COc1ccc([C@@H]2CCCC[C@H]2C#N)c(OC)c1OC (relative stereo) | 69 to 72 °C
COc1cc(Nc2nccc(-c3cccnc3)n2)ccc1-n1cnc(C)c1 | 204 to 206 °C
CC(=O)N[C@H](COC(F)F)C(=O)NCc1ccc(F)cc1 | 163 °C
Oc1ccc2c(ccn2Nc2ccncc2F)c1 | 70 to 73 °C
C[C@H]1C[C@@H](Nc2ccccc2)c2ccccc2N1C(=O)c1ccncc1 (relative stereo) | 121 °C
Cc1ccc(C#N)c(N2CCc3ccccc3CC2)n1 | 78.5 to 80.7 °C
O=C1C(c2ccccc2)=C(c2ccccc2)C(=O)N1c1ccc(Cl)cc1 | 198 to 199 °C
CC(=S)c1ccc(Cc2ccc(C(C)=S)cc2)cc1 | 54 to 55 °C
O=C(O)c1sc2cc(OCc3cccnc3)ccc2c1Sc1ccccc1 | 236 to 238 °C

SMILES | melting point
CN(C)c1n[nH]c(-c2ccc(Cl)cc2)c1CC(=O)O | 157 to 168 °C
CCC1(C)CC(N(CCN(C(C)=O)C2CC(C)(CC)NC(C)(CC)C2C)C(C)=O)C(C)C(C)(CC)N1 (configuration not stated) | 173 to 175 °C
O=C1Cc2ccccc2C(=O)N1c1ccc(Cl)cc1 | 178 to 180 °C
O=C(NCc1cc(Cl)cc(Cl)c1)c1ccnc(NC(=O)c2ccccc2)c1 | 248 to 251 °C
OCCC(CCS)c1ccncc1 (configuration not stated) | 50 to 52 °C
CN1C2CCC1CC(c1ccc3ccccc3c1)C2 (configuration not stated) | 77 to 79 °C
CC(=O)c1cc(Br)cc(Cc2cc(Cl)cc(Cc3cc(Br)ccc3O)c2O)c1O | 185 to 186 °C
CNC(=O)c1ccc(N2CCNCC2)c(Cl)c1 | 176 to 189 °C
CC(c1cn(C)c2ccccc12)N(O)C(N)=O (configuration not stated) | 149 to 150 °C
CC(C(=O)O)c1ccc(-c2nc3ccccc3o2)cc1 (configuration not stated) | 174 to 178 °C
O=C(O)C1(CP(=O)(OCc2ccccc2)OCc2ccccc2)CCCC1 | 89 to 92 °C
[N-]=[N+]=Cc1ccc([N+](=O)[O-])cc1 | 80 to 82 °C
COc1ccc(C(=CC(=O)O)c2ccc(-c3ccccc3)cc2)cc1OC | 178 to 184 °C
CCCC(Oc1ccc2c(-c3ccc(Cl)cc3)noc2c1)C(=O)O (configuration not stated) | 170 °C
O=c1[nH]c2ccc(OCCCCN3CCC(c4cccc(Cl)c4Cl)CC3)cc2[nH]1 | 180 to 182 °C
COC(=O)c1ccc2[nH]cc(C3=CCN(C)CC3)c2c1 | 202 to 204 °C
O=C1c2ccccc2C(Cc2ccnc(F)c2)(Cc2ccnc(F)c2)c2ccccc21 | 156 to 157 °C
CCCCc1ccc(OC(=O)c2ccc(-c3ccc(CC(CC)CCCC)cc3)cc2)c(C#N)c1 (configuration not stated) | 37 °C

Continued, values first:

melting point | SMILES
153 °C | CCOCCOc1cc(C(F)(F)F)cc(N(N)C(=CNS(C)(=O)=O)[N+](=O)[O-])n1
148 to 150 °C | COc1ccc2c(c1)c(S(=O)(=O)c1ccccc1)cn2CCCl
114 °C | CSc1nc2ccc(C)cc2c(=O)s1
116 to 118 °C | COC(=O)CCCc1cc2cc(Cl)ccc2n1S(=O)(=O)c1ccc2ccccc2c1
126 to 127 °C | CC(C)(C)OC(=O)NC(C)(C)c1ccc(-c2nc(Nc3ccc(OCCO)cc3)ncc2C#N)cc1
218 to 220 °C | COc1cccc2c(Nc3ccccc3C)nc(Cl)nc12
49 to 51 °C | C=CCN(CC=C)S(=O)(=O)c1ncn(C(=O)N(CC)CC)n1
183 to 186 °C | COc1ccc(C(=O)c2cccc(C(=O)O)c2)cc1
149 to 150 °C | CCCCC1(CCCC)CS(=O)(=O)c2ccc(N(C)C)cc2C(c2ccc(OCC(=O)NCC(=O)O)cc2)C1O (configuration not stated)
215 to 216 °C | CCOP(=O)(CCCCCCOc1ccc(C(=O)O)cc1)OCC
131 °C | CC(=O)CCN1CCC(Nc2nc3ccccc3n2Cc2ccc(F)cc2)CC1
72 °C | CC#CCOc1ccc(S(=O)(=O)NC(C(=O)NO)C(C)(C)SCCN2CCOCC2)cc1 (configuration not stated)
120 to 128 °C | COCCN1CCc2ccc(Nc3ncc(Cl)c(Nc4ccccc4S(=O)(=O)N4CCC(O)C4)n3)cc2CC1 (configuration not stated)
191 to 193 °C | CCC(c1ccccc1)(c1ccccc1)c1ccnc(C(=O)O)c1
107 to 108 °C | CCOC(=O)CC(C)Sc1nnc(S)s1 (configuration not stated)
147 to 148 °C | COc1ccc(C(=O)NNC(=O)C(F)(F)F)cc1
130 to 131 °C | CCOC(=O)C(Cl)(Cl)CCCCCCCCCCCCSc1ccc(NC(=O)c2ccc(Cl)cc2)cc1
204 °C | Cc1ccc(-c2c(NS(=O)(=O)c3cccc4ccccc34)ncnc2OCCOc2ncc(Br)cn2)cc1
155 to 157 °C | N#CC(C(=O)Nc1ccc(S(=O)C(F)(F)F)cc1)=C(O)C1CC1 (configuration not stated)
191 °C | Fc1cc(F)c(F)c(-c2c(Cl)nc3ncnn3c2Cl)c1
192 to 193 °C | CC(C)(C)Nc1cc(Cl)nc(Cl)n1
200 to 201 °C | O=C(NCCc1c[nH]c2ccc([N+](=O)[O-])cc12)C(F)(F)F

melting point | SMILES
131 °C | CC(=O)OC1CSC(Oc2cncc(-c3ccc(C)c(C)c3)c2)C(OC(C)=O)C1OC(C)=O (configuration not stated)
196 to 197 °C | N#Cc1cnn2c(-c3ccccc3C(F)(F)F)ccnc12
117 to 120 °C | CC(=O)Oc1ccc(CI)cc1C(OC(C)=O)OC(C)=O
185 to 188 °C | O=C(O)COc1ccc(N2CC(=O)NS2(=O)=O)c(O)c1
65 °C | CC(=O)OC1CSC(Oc2cncc(-c3ccc(OC(C)C)c(F)c3)c2)C(OC(C)=O)C1OC(C)=O (configuration not stated)
183 to 187 °C | Cc1nc2cccc(OCC(C)(C)C(=O)NC3CCC3)c2c(N)c1C(=O)O
50 to 53 °C | Cc1cc(OC(=O)C(C)(C)C)c(C)c(C)c1OCc1ccccc1
103 to 105 °C | O=[N+]([O-])c1c(Br)nn(CCO)c1Br
108 to 110 °C | CCOC(=O)c1cc(-c2nnn(C)n2)c(-c2ccc(F)cc2)s1
211 to 213 °C | CCOC(=O)c1nn(-c2ccc(N(C)C)cc2)c(=O)c2c(N)scc12
160 to 167 °C | CS(=O)(=O)Nc1ccc(-c2ccc(S(=O)(=O)n3ccc(C=CC(=O)NO)c3)cc2)cc1
174 to 175 °C | CCCC[C@@H](NC(=O)[C@H](Cc1ccc(O)cc1)NC(=O)OC(C)(C)C)C(=O)NCC(=O)O
178 to 188 °C | CCCc1nc2c(N)nc3ccccc3c2n1CCCCN(OC)S(C)(=O)=O
235 to 237 °C | NC(=O)/C=C1/c2cc(F)cc(F)c2CC1O (configuration not stated)
56 to 58 °C | CCOC(=O)c1c(C)nc2c(ncn2C)c1Cl
129 °C | CS(=O)(=O)c1ccc(OCc2ccccc2)c(C=O)c1
163 to 165 °C | CCCN1CC(C)=CC2=C1N1CN(OC)C=C1N=N2
172 to 177 °C | CC(C)c1cc(Cl)cc(C(C)C)c1NC(=O)NS(=O)(=O)c1cccc(S(N)(=O)=O)c1
253 °C | CCOc1ccccc1C1(O)C(=O)Nc2cc(C)c(Cl)cc21 (configuration not stated)
219 to 222 °C | CCC(O)c1cc2c(=O)n(NS(C)(=O)=O)c(=O)[nH]c2cc1C(F)(F)F (configuration not stated)
125 to 127 °C | Cc1c(NS(=O)(=O)c2ccccc2)cc(C(C)(C)C)cc1SC1=C(O)CC(CCc2ccc(O)cc2)(C2CCCC2)OC1=O (racemic)
101 to 105 °C | COc1cc(CNc2nc(C)nc(C)c2Cl)ccc1OCc1ccccc1
